From patent US9278950B2, “Bicyclic aromatic carboxamide compounds useful as Pim kinase inhibitors” (Incyte Corporation, priority 2013, dated 2016)

How the values were obtained:
Type in all cases: biochemical
Pim-1 = target: T1, Pim-1 (Homo sapiens, UniProt P11309); assay: Pim-1 kinase assay (Pim enzyme assays, Example A); conditions: 1 mM ATP; read-out: Pim1 IC50
T1 construct: purchased Invitrogen PV3503
Method: (§1) Pim-1 and Pim-3 kinase assays-20 μL reactions were run in white 384 well polystyrene plates dotted with 0.8 μL compound/DMSO in the assay buffer (50 mM Tris, pH 7.5, 0.01% Tween-20, 5 mM mgCl2, 0.01% BSA, 5 mM DTT), containing 0.05 μM Biotin-labeled BAD peptide substrate (AnaSpec 62269), 1 mM ATP, and […] (Pim-1, Invitrogen PV3503) or […] (Pim-3, Millipore 14-738) enzyme for 1 h at 25° C. Reactions were stopped by addition of 10 μL STOP Buffer (150 mM Tris, pH=7.5, 150 mM NaCl, 75 mM EDTA, 0.01% Tween-20, 0.3% BSA,) supplemented with Phospho-Bad (Ser 12) Antibody (Cell Signaling 9291) diluted 666-fold, and Streptavidin donor beads (PerkinElmer 6760002) along with Protein-A acceptor beads (PerkinElmer 6760137) at 15 μg/mL each. Supplementation of the STOP buffer with beads and stopping the reactions were done under reduced light. Prior to the stopping reactions STOP buffer with beads was preincubated for 1 h in the dark at room temperature. After stopping the reactions, plates were incubated for 1 h in the dark at room temperature before reading on a PHERAstar FS plate reader (BMG Labtech) under reduced light.

Pim-3 = target: T2, Pim-3 (Homo sapiens, UniProt Q86V86); assay: Pim-3 kinase assay (Pim enzyme assays, Example A); conditions: 1 mM ATP; read-out: Pim3 IC50
T2 construct: purchased Millipore 14-738
Method: as §1

Pim2 = target: T3, Pim2 (Homo sapiens, UniProt Q9P1W9); assay: Pim-2 kinase assay (Pim enzyme assays, Example A); conditions: 1 mM ATP; read-out: Pim2 IC50
T3 construct: purchased Invitrogen PV3649
Method: Pim-2 kinase assay—20 μL reactions were run in white 384 well polystyrene plates dotted with 0.8 μL compound/DMSO in the assay buffer (50 mM Tris, pH 7.5, 0.01% Tween-20, 5 mM mgCl2, 0.01% BSA, 5 mM DTT), containing 0.05 μM Fluorescein-labeled CREBtide peptide substrate (Invitrogen PV3508), 1 mM ATP, and 1 nM enzyme (Invitrogen PV3649) for 2 h at 25° C. Reactions were stopped by addition of 10 μL TR-FRET Dilution Buffer (Invitrogen PV3574) with 30 mM EDTA and 1.5 nM LanthaScreen Tb-CREB pSer133 antibody (Invitrogen PV3566). After 30 min. incubation at room temperature, plates were read on a PHERAstar FS plate reader (BMG Labtech).

T1 sequence (P11309 whole entry): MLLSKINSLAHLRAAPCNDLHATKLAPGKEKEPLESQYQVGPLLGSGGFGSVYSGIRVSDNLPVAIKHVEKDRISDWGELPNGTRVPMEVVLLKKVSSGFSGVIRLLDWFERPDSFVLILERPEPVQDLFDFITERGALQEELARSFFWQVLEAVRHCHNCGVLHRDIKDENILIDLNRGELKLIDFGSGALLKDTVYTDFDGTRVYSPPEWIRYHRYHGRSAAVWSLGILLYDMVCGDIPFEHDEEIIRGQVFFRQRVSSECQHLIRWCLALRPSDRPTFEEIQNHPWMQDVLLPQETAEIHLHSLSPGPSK
T3 sequence (Q9P1W9 whole entry): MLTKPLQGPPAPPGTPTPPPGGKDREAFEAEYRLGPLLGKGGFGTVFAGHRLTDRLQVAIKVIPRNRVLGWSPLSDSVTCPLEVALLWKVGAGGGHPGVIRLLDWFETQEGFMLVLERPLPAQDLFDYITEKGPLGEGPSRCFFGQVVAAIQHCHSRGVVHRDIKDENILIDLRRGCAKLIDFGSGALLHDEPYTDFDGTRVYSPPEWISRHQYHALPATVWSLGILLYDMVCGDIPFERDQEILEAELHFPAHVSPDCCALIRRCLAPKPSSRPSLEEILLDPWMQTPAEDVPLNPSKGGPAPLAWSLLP

Row | Compound | IC50 (Pim-1) [nM] | IC50 (Pim-3) [nM] | IC50 (Pim2) [nM]
1 | CCc1ccc2cc(N)c(C(=O)Nc3cnc(OC)cc3N3CCC[C@H](N)C3)nc2c1 [Example 31, 3-Amino-N-{4-[(3S)-3-aminopiperidin-1-yl]-6-methoxypyridin-3-yl}-7-ethylquinoline-2-carboxamide] | > 40 | ≤ 100 | > 2000
2 | C[C@H]1CN(c2ccncc2NC(=O)c2nc3cc(N4CCN(C)CC4)ccc3cc2N)C[C@@H](N)[C@@H]1O [Example 38, 3-Amino-N-{4-[(3R,4R,5S)-3-amino-4-hydroxy-5-methylpiperidin-1-yl]pyridin-3-yl}-7-(4-methylpiperazin-1-yl)quinoline-2-carboxamide] | ≤ 100 | ≤ 100 | ≤ 100
3 | Nc1cc2ccc(C3CCOCC3)cc2nc1C(=O)Nc1cnccc1N1C[C@@H](N)C[C@@H](C(F)(F)F)C1 [Example 39, 3-Amino-N-{4-[(3S,5R)-3-amino-5-(trifluoromethyl)piperidin-1-yl]pyridin-3-yl}-7-(tetrahydro-2H-pyran-4-yl)quinoline-2-carboxamide] | ≤ 100 | ≤ 100 | ≤ 100
4 | C[C@@H]1C[C@H](N)CN(c2ccncc2NC(=O)c2nc3cc(C4CCOCC4)ccc3cc2N)C1 [Example 40, 3-Amino-N-{4-[(3S,5R)-3-amino-5-methylpiperidin-1-yl]pyridin-3-yl}-7-(tetrahydro-2H-pyran-4-yl)quinoline-2-carboxamide] | ≤ 100 | ≤ 100 | ≤ 100
5 | C[C@H]1CN(c2ccncc2NC(=O)c2nc3cc(C4CCOCC4)ccc3cc2N)C[C@@H](N)[C@@H]1O [Example 41, 3-Amino-N-{4-[(3R,4R,5S)-3-amino-4-hydroxy-5-methylpiperidin-1-yl]pyridin-3-yl}-7-(tetrahydro-2H-pyran-4-yl)quinoline-2-carboxamide] | ≤ 100 | ≤ 100 | ≤ 100
6 | C[C@H]1CN(c2ccncc2NC(=O)c2nc3cc(C4CCN(C)CC4)ccc3cc2N)C[C@@H](N)[C@@H]1O [Example 42, 3-Amino-N-{4-[(3R,4R,5S)-3-amino-4-hydroxy-5-methylpiperidin-1-yl]pyridin-3-yl}-7-(1-methylpiperidin-4-yl)quinoline-2-carboxamide] | ≤ 100 | ≤ 100 | ≤ 100
7 | C[C@@H]1C[C@H](N)CN(c2ccncc2NC(=O)c2nc3cc(C4CCN(C)CC4)ccc3cc2N)C1 [Example 43, 3-Amino-N-{4-[(3S,5R)-3-amino-5-methylpiperidin-1-yl]pyridin-3-yl}-7-(1-methylpiperidin-4-yl)quinoline-2-carboxamide] | ≤ 100 | ≤ 100 | ≤ 100
8 | CN1CCC(c2ccc3cc(N)c(C(=O)Nc4cnccc4N4C[C@@H](N)C[C@@H](C(F)(F)F)C4)nc3c2)CC1 [Example 44, 3-Amino-N-{4-[(3S,5R)-3-amino-5-(trifluoromethyl)piperidin-1-yl]pyridin-3-yl}-7-(1-methylpiperidin-4-yl)quinoline-2-carboxamide] | ≤ 100 | ≤ 100 | ≤ 100
9 | C[C@@H]1C[C@H](N)CN(c2ccncc2NC(=O)c2nc3cc(N4CCCCC4=O)ccc3cc2N)C1 [Example 45, 3-Amino-N-{4-[(3S,5R)-3-amino-5-methylpiperidin-1-yl]pyridin-3-yl}-7-(2-oxopiperidin-1-yl)quinoline-2-carboxamide] | ≤ 100 | ≤ 100 | 100 to 1000
10 | C[C@@H]1C[C@H](N)CN(c2ccncc2NC(=O)c2nc3cc(N4CCN(C)C(=O)C4)ccc3cc2N)C1 [Example 46, 3-Amino-N-{4-[(3S,5R)-3-amino-5-methylpiperidin-1-yl]pyridin-3-yl}-7-(4-methyl-3-oxopiperazin-1-yl)quinoline-2-carboxamide] | ≤ 100 | ≤ 100 | 100 to 1000
11 | C[C@@H]1C[C@H](N)CN(c2ccncc2NC(=O)c2nc3cc(N4CCNC(=O)C4)ccc3cc2N)C1 [Example 47, 3-Amino-N-{4-[(3S,5R)-3-amino-5-methylpiperidin-1-yl]pyridin-3-yl}-7-(3-oxopiperazin-1-yl)quinoline-2-carboxamide] | ≤ 100 | ≤ 100 | 100 to 1000
12 | C[C@H]1CN(c2ccncc2NC(=O)c2nc3cc(N4CCN(C)C(=O)C4)ccc3cc2N)C[C@@H](N)[C@@H]1O [Example 48, 3-Amino-N-{4-[(3R,4R,5S)-3-amino-4-hydroxy-5-methylpiperidin-1-yl]pyridin-3-yl}-7-(4-methyl-3-oxopiperazin-1-yl)quinoline-2-carboxamide] | ≤ 100 | ≤ 100 | ≤ 100
13 | C[C@H]1CN(c2ccncc2NC(=O)c2nc3cc(N4CCCCC4=O)ccc3cc2N)C[C@@H](N)[C@@H]1O [Example 49, 3-Amino-N-{4-[(3R,4R,5S)-3-amino-4-hydroxy-5-methylpiperidin-1-yl]pyridin-3-yl}-7-(2-oxopiperidin-1-yl)quinoline-2-carboxamide] | ≤ 100 | ≤ 100 | 100 to 1000

More lines, now with the values ahead:

Row | IC50 (Pim-1) [nM] | IC50 (Pim-3) [nM] | IC50 (Pim2) [nM] | Compound
14 | ≤ 100 | ≤ 100 | ≤ 100 | CCc1ccc2cc(N)c(C(=O)Nc3cncc(C)c3N3C[C@@H](N)[C@H](O)[C@@H](C)C3)nc2c1 [Example 28, 3-Amino-N-{4-[(3R,4R,5S)-3-amino-4-hydroxy-5-methylpiperidin-1-yl]-5-methylpyridin-3-yl}-7-ethylquinoline-2-carboxamide]
15 | ≤ 100 | ≤ 100 | ≤ 100 | CCc1ccc2cc(N)c(C(=O)Nc3cnccc3N3C[C@@H](N)[C@H](O)[C@@H](C)C3)nc2c1 [Example 29, 3-Amino-N-{4-[(3R,4R,5S)-3-amino-4-hydroxy-5-methylpiperidin-1-yl]pyridin-3-yl}-7-ethylquinoline-2-carboxamide]
16 | ≤ 100 | ≤ 100 | ≤ 100 | CCc1ccc2cc(N)c(C(=O)Nc3cncc(C)c3N3CCC[C@H](N)C3)nc2c1 [Example 30, 3-Amino-N-{4-[(3S)-3-aminopiperidin-1-yl]-5-methylpyridin-3-yl}-7-ethylquinoline-2-carboxamide]
17 | ≤ 100 | ≤ 100 | > 2000 | CCc1ccc2cc(N)c(C(=O)Nc3cncc(C#N)c3N3CCC[C@H](N)C3)nc2c1 [Example 32, 3-Amino-N-{4-[(3S)-3-aminopiperidin-1-yl]-5-cyanopyridin-3-yl}-7-ethylquinoline-2-carboxamide]
18 | ≤ 100 | ≤ 100 | 100 to 1000 | C[C@H]1CN(c2ccncc2NC(=O)c2nc3cc(N4CCOCC4)ccc3cc2N)C[C@@H](N)[C@@H]1O [Example 33, 3-Amino-N-{4-[(3R,4R,5S)-3-amino-4-hydroxy-5-methylpiperidin-1-yl]pyridin-3-yl}-7-morpholin-4-ylquinoline-2-carboxamide]
19 | ≤ 100 | ≤ 100 | ≤ 100 | C[C@@H]1C[C@H](N)CN(c2ccncc2NC(=O)c2nc3cc(N4CCOCC4)ccc3cc2N)C1 [Example 34, 3-Amino-N-{4-[(3S,5R)-3-amino-5-methylpiperidin-1-yl]pyridin-3-yl}-7-morpholin-4-ylquinoline-2-carboxamide]
20 | ≤ 100 | ≤ 100 | 100 to 1000 | Nc1cc2ccc(N3CCOCC3)cc2nc1C(=O)Nc1cnccc1N1C[C@@H](N)C[C@@H](C(F)(F)F)C1 [Example 35, 3-Amino-N-{4-[(3S,5R)-3-amino-5-(trifluoromethyl)piperidin-1-yl]pyridin-3-yl}-7-morpholin-4-ylquinoline-2-carboxamide]
21 | ≤ 100 | ≤ 100 | ≤ 100 | C[C@@H]1C[C@H](N)CN(c2ccncc2NC(=O)c2nc3cc(N4CCN(C)CC4)ccc3cc2N)C1 [Example 36, 3-Amino-N-{4-[(3S,5R)-3-amino-5-methylpiperidin-1-yl]pyridin-3-yl}-7-(4-methylpiperazin-1-yl)quinoline-2-carboxamide]
22 | ≤ 100 | ≤ 100 | 100 to 1000 | CN1CCN(c2ccc3cc(N)c(C(=O)Nc4cnccc4N4C[C@@H](N)C[C@@H](C(F)(F)F)C4)nc3c2)CC1 [Example 37, 3-Amino-N-{4-[(3S,5R)-3-amino-5-(trifluoromethyl)piperidin-1-yl]pyridin-3-yl}-7-(4-methylpiperazin-1-yl)quinoline-2-carboxamide]
